Measured values as given in patent EP2769738B1, “Conjugated TLR7 and/or TLR8 and TLR2 polycationic agonists” (Invivogen, priority 2013, dated 2014).
Several values for one entry are separate records, joined by “and”; a condition that tells them apart may be missing. Equal values may be shown once.

Assays:
[1] = Determination of nanoparticle (lipoplex) size by dynamic light scattering; type: physicochemical; conditions: ratio 3:24 (w:w); for Conformity (C)/ Non-conformity (NC) / Mean Diameter (nm): complexes with pDNA; for Mean Diameter (nm): dynamic light scattering at 25°C; for Mean Diameter (nm) / PDI: triplicate measurements; for PDI: polydispersity index of complexes with pDNA, 25°C
Procedure: • 1. Preparative HPLC Method: Unless otherwise indicated, the compounds described herein were purified by RP-MPLC ARMEN® Spot Flash Liquid Chromatography (ARMEN Instrument, Saint Ave, France) on a preparative column (SVF D26) packed with 25-40 µm C18 resin (Merck chimie SAS), by applying a linear gradient of 0-10% MeCN in NH4OAc (10 mM) solution (pH = 9) over 60 min at a 15 mL/min flow rate. The purification was monitored at 254 nm. Suitable fractions were pooled and lyophilised. • 2. Proton NMR Spectra: Unless otherwise indicated, all ^1H NMR spectra were run on a Bruker series 300 MHz instrument. Where so characterized, all observed protons are reported as parts-per-million (ppm) downfield from tetramethylsilane (TMS) or other internal reference in the appropriate solvent indicated. NMR spectra were recorded on a Brucker 300 spectrometer. For ^1H (300 MHz) spectra δ values were referenced to CDCI3-d1 (7.26 ppm), DMSO- d6 (2.50 ppm), D2O-d2 (4.79 ppm) or MeOD-d4 (3.31 ppm). The peak patterns are indicated as follows: s: singlet, sl: large singlet, d: doublet, t: triplet, q: quartet, m: multiplet. • 3. Mass Spectra (MS): Analyses were run on an Agilent Model 6130 quadrupole MS. Unless otherwise indicated, all mass spectral data for starting materials, intermediates and/or exemplary compounds are reported as mass/charge (m/z), having an (M+H)^+ molecular ion. The molecular ion reported was obtained by electrospray detection method (commonly referred to as an ESI MS). Compounds having an isotopic atom, such as bromine and the like, are generally reported according to the detected isotopic pattern, as appreciated by those skilled in the art. • 4. Particle size: Particle size was determined using a Malvern Nanosizer (Malvern, Worcestershire, UK) and Malvern ZETASIZER.RTM. (Malvern, Worcestershire, UK). • 5. Naming Convention The compounds disclosed and described herein have been named using the naming convention provided with Chem-Draw Ultra 11.0 software, available in Chem. Office. In some instances, compounds were named with the term "spermine" inserted where appropriate. For example, where the spermine is substituted with Boc, "N1,N5,N10-TriBoc-spermine" is added to the Chem-Draw nomenclature in the appropriate place. Chem-Draw utilizes the ISIS Draw software compound naming convention, as appreciated by those skilled in the art.
For pDNA:TLR7-TLR2 polyamine molecules complexes, a ratio pDNA:TLR7-TLR2 polyamine molecules of 3:24 (w:w) was prepared in serum-free culture medium or in 5% glucose. The TLR7-TLR2 conjugated compound of interest was prediluted in serum-free culture medium or in 5% glucose and incubated for 5 minutes at room temperature, prior to the addition of an endotoxin-free, salt-free preparation of pDNA. In these experiments, the pBsr2pCpGLacZh plasmid was used in the pDNA:TLR7-TLR2 polyamine molecule complexes. The pDNA:TLR7-TLR2 polyamine molecule mixtures were incubated at room temperature for 30 minutes to allow the formation of the complex. The control used in these experiments was the cationic lipid transfection agent LyoVec™ (InvivoGen) prepared in a similar manner.
In order to confirm that TLR7-TLR2 polyamine molecules complex DNA, lipoplex size was determined. The physical characterization of complex was achieved by dynamic light scattering using the analytical equipment for laser diffraction Zetasizer Nano-ZS (Malvern). pDNA:TLR7-TLR2 polyamine molecule complexes were prepared as described above. Subsequently, 50µl of pDNA: TLR7-TLR2 polyamine molecule complexes were placed into a disposable sizing cuvette and measurements were made under conditions defined according to manufacturer's instructions. The measurements were made at 25°C in triplicate and a size distribution report was obtained. […]

[2] = tested on: endogenous TLR2 and TLR7 in RAW-Blue™ Cells; test: RAW-Blue Cells NF-κB/AP-1 SEAP reporter assay (endogenous receptors); type: cell-based, mouse; conditions: Figure 4; 10 µg/mL to 10 pg/ml, 24 hours, SEAP read as OD at 655 nm
Procedure: Cell-based assays were carried out using TLR7 and TLR2 reporter cell lines (InvivoGen). The reporter cell lines are engineered HEK293 cells, a human embryonic kidney cell line (ATCC, CRL-1573) that stably express either murine TLR7 (HEK-Blue™ mTLR7) or human TLR7 (HEK-Blue™ hTLR7) or human TLR2 (HEK- Blue™ hTLR2) with an NF-κB-inducible secreted embryonic alkaline phosphatase (SEAP) as the reporter gene. The SEAP reporter gene is under the control of the NF-κB and AP-1-inducible promoter, which, upon treatment with a corresponding TLR ligand and activation of NF-κB and AP-1, induces the production of SEAP. Detection of SEAP is measured following culturing cells in HEK-Blue™ Detection media (InvivoGen). HEK-Blue™ Detection contains a SEAP substrate that when hydrolysed by SEAP produces a colorimetric change allowing for detection of SEAP as the protein is secreted. […] These assays were carried out using RAW-Blue™ Cells (InvivoGen), derived from RAW 264.7 mouse leukemic monocyte macrophage cell line (ATCC, CRL 2278) stably overexpressing a NF-κB /AP-1 inducible SEAP reporter constructs.
To perform the assay, cells were seeded on 96 well microliter plates at 50,000 or 100,000 cells per well for HEK-Blue™ Cells and RAW-Blue™ Cells respectively, and cultured at 37 °C in the presence of the conjugated compounds The TLR7-TLR2 polyamine molecules were prepared as follows: First, stock solutions of the conjugated compounds of the invention were prepared in ethanol or water to a concentration of 10 mg/ml.
The working dilutions of the conjugated TLR7-TLR2 polyamine agonists made up in water or PBS were directly added to the reporter cell lines at a final concentration ranging from 10 µg/mL to 10 pg/ml and incubated at 37 °C for 24 hours. After 24 hours of incubation, the effect on reporter gene activity was determined by reading the OD at 655 nm using iMark™ Microplate Reader (BIO-RAD).

Mean Diameter (nm) [1] | PDI [1] | SMILES | Conformity (C)/ Non-conformity (NC) [1] | ability to activate endogenous TLR2 and TLR7 in RAW-Blue™ Cells [2]
209,2 nm and 179,7 nm and 202,0 nm | 0,236 and 0,232 and 0,234 | CCCCCCCCCCCCCCCC(=O)OCC(CSC[C@H](N)C(=O)NCCCC[C@H](NC(=O)c1ccc(Cn2c(O)nc3c(N)nc(NCCCC)nc32)cc1)C(=O)NCCCNCCCCNCCCN)OC(=O)CCCCCCCCCCCCCCC (stereo partly drawn) [CL486, (6R,13S)-6,27-diamino-13-(4-((6-amino-2-(butylamino)-8-hydroxy-9H-purin-9-yl)methyl)benzamido)-7,14-dioxo-4-thia-8,15,19,24-tetraazaheptacosane-1,2-diyl dipalmitate] | C (ranged between 140 and 200 nm in diameter were considered to show conformity) | activate endogenous TLR2 and TLR7
249,1 nm and 309,6 nm and 258,3 nm | 0,303 and 0,354 and 0,372 | CCCCCCCCCCCCCCCC(=O)OCC(CSC[C@H](N)C(=O)N[C@@H](COC(=O)c1ccc(Cn2c(O)nc3c(N)nc(NCCCC)nc32)cc1)C(=O)NCCCNCCCCNCCCN)OC(=O)CCCCCCCCCCCCCCC (stereo partly drawn) [CL514, (6R,9S)-6,23-diamino-9-((4-((6-amino-2-(butylamino)-8-hydroxy-9H-purin-9-yl)methyl)benzoyloxy)methyl)-7,10-dioxo-4-thia-8,11,15,20-tetraazatricosane-1,2-diyl dipalmitate] | C (ranged between 140 and 200 nm in diameter were considered to show conformity) | activate endogenous TLR2 and TLR7
175,1 nm and 156,9 nm and 168,3 nm | 0,253 and 0,239 and 0,258 | CCCCCCCCCCCCCCCC(=O)OCC(CSC[C@H](N)C(=O)N[C@@H](CCC(=O)NCCCNCCCCNCCCN)C(=O)Nc1ccc(Cn2c(O)nc3c(N)nc(NCCCC)nc32)cc1)OC(=O)CCCCCCCCCCCCCCC (stereo partly drawn) [CL527, (6R,9S)-6,25-diamino-9-(4-((6-amino-2-(butylamino)-8-hydroxy-9H-purin-9-yl)methyl)phenylcarbamoyl)-7,12-dioxo-4-thia-8,13,17,22-tetraazapentacosane-1,2-diyl dipalmitate] | C (ranged between 140 and 200 nm in diameter were considered to show conformity) | activate endogenous TLR2 and TLR7
145,9 nm and 155,8 nm and 153,5 nm | 0,193 and 0,176 and 0,158 | CCCCCCCCCCCCCCCC(=O)OCC(CSC[C@H](N)C(=O)N[C@@H](CCCCNC(=O)CNC(=O)c1ccc(Cn2c(O)nc3c(N)nc(NCCCC)nc32)cc1)C(=O)NCCCNCCCCNCCCN)OC(=O)CCCCCCCCCCCCCCC (stereo partly drawn) [CL475, (6R,9S)-6,23-diamino-9-(4-(2-(4-((6-amino-2-(butylamino)-8-hydroxy-9H-purin-9-yl)methyl)benzamido)acetamido)butyl)-7,10-dioxo-4-thia-8,11,15,20-tetraazatrico sane-1,2-diyl dipalmitate] | C (ranged between 140 and 200 nm in diameter were considered to show conformity) | activate endogenous TLR2 and TLR7
170.0 nm and 190.0 nm and 180,2 nm | 0,226 and 0,230 and 0,237 | CCCCCCCCCCCCCCCC(=O)OCC(CSC[C@H](N)C(=O)NCCCNCCCCNCCCNC(=O)CNC(=O)c1ccc(Cn2c(O)nc3c(N)nc(NCCCC)nc32)cc1)OC(=O)CCCCCCCCCCCCCCC (stereo partly drawn) [CL553, (20R)-20-amino-1-(4-((6-amino-2-(butylamino)-8-hydroxy-9H-purin-9-yl)methyl)phenyl)-1,4,19-trioxo-22-thia-2,5,9,14,18-pentaazapentacosane-24,25-diyl dipalmitate] | C (ranged between 140 and 200 nm in diameter were considered to show conformity) | activate endogenous TLR2 and TLR7
148,1 nm and 165,6 nm and 160,0 nm | 0,23 and 0,255 and 0,241 | CCCCCCCCCCCCCCCC(=O)OCC(CSC[C@H](N)C(=O)NCCCC[C@H](NC(=O)CNC(=O)c1ccc(Cn2c(O)nc3c(N)nc(NCCCC)nc32)cc1)C(=O)NCCCNCCCCNCCCN)OC(=O)CCCCCCCCCCCCCCC (stereo partly drawn) [CL487, (6R,13S)-6,27-diamino-13-(2-(4-((6-amino-2-(butylamino)-8-hydroxy-9H-purin-9-yl)methyl)benzamido)acetamido)-7,14-dioxo-4-thia-8,15,19,24-tetraazaheptacosane-1,2-diyl dipalmitate] | C (ranged between 140 and 200 nm in diameter were considered to show conformity) | activate endogenous TLR2 and TLR7
